Assay results published in ChEMBL document CHEMBL3124838, “Discovery of 6-aryl-azabenzimidazoles that inhibit the TBK1/IKK-ε kinases” (Bioorg Med Chem Lett, 2014).

How the values were obtained:
[1] = target: Glycogen synthase kinase-3 beta (Homo sapiens) (UniProt P49841); experiment: Inhibition of human GSK3beta assessed as residual activity at 1 uM relative to control
[2] = target: Fibroblast growth factor receptor 3 (Homo sapiens) (UniProt P22607); experiment: Inhibition of human FGFR3 assessed as residual activity at 1 uM relative to control
Chain of Fibroblast growth factor receptor 3 (Homo sapiens) (P22607 23-806 limits assumed): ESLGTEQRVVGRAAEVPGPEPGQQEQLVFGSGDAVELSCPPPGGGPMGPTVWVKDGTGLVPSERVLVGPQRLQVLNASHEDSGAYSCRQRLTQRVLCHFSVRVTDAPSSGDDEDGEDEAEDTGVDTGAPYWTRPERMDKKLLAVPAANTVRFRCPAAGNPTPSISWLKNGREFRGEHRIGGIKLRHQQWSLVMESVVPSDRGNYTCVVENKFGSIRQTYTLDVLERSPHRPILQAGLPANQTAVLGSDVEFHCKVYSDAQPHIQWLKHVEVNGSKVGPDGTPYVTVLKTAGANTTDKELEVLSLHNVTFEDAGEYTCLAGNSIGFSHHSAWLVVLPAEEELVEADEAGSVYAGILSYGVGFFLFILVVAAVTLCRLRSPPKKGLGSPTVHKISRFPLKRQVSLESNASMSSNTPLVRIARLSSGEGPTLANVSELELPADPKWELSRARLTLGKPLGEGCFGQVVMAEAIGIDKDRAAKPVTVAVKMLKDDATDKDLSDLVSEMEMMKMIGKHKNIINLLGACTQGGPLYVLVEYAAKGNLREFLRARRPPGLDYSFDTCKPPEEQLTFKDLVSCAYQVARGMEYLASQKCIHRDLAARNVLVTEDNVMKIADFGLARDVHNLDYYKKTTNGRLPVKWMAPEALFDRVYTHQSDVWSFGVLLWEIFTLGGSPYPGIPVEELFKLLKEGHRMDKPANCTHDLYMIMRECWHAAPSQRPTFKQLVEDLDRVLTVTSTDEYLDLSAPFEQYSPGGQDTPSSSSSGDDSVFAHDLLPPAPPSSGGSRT

[3] = target: T1, Activin receptor type-1B (Homo sapiens) (UniProt P36896); experiment: Inhibition of human ALK4 assessed as residual activity at 1 uM relative to control
T1 sequence (whole entry): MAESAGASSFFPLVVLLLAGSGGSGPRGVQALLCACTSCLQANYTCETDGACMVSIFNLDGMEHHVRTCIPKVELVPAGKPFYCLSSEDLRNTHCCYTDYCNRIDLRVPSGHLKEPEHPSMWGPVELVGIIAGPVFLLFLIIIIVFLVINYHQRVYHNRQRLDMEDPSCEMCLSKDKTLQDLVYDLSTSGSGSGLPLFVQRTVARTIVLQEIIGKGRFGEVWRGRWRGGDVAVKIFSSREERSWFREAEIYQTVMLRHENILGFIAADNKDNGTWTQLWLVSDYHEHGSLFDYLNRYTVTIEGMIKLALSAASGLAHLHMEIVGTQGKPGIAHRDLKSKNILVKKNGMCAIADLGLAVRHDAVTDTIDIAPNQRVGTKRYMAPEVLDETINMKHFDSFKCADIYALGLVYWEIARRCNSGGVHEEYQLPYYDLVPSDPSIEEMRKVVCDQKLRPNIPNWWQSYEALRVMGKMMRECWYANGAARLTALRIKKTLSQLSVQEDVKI

[4] = target: Insulin-like growth factor 1 receptor (Homo sapiens) (UniProt P08069); experiment: Inhibition of human IGF-1R assessed as residual activity at 1 uM relative to control
[5] = target: T2, Dual specificity tyrosine-phosphorylation-regulated kinase 2 (Homo sapiens) (UniProt Q92630); experiment: Inhibition of human DYRK2 assessed as residual activity at 1 uM relative to control
T2 sequence (whole entry): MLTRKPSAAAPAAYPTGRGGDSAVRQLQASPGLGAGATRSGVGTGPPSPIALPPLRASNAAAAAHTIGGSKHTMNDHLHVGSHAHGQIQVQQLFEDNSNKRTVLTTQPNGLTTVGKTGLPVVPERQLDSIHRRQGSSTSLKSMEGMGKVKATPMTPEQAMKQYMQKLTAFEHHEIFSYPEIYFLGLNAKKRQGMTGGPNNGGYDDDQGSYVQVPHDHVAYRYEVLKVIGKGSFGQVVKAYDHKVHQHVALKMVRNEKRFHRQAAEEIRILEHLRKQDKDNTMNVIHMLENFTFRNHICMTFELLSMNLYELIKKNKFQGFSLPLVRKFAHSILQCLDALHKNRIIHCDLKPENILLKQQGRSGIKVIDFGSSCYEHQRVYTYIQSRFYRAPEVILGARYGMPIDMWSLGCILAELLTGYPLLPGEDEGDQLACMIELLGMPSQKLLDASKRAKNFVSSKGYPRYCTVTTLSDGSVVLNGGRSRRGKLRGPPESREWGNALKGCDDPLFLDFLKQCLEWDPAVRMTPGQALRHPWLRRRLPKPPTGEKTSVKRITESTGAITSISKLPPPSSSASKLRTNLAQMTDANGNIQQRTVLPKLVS

[6] = target: T3, Myotonin-protein kinase (Homo sapiens) (UniProt Q09013); experiment: Inhibition of human DMPK assessed as residual activity at 1 uM relative to control
T3 sequence (whole entry): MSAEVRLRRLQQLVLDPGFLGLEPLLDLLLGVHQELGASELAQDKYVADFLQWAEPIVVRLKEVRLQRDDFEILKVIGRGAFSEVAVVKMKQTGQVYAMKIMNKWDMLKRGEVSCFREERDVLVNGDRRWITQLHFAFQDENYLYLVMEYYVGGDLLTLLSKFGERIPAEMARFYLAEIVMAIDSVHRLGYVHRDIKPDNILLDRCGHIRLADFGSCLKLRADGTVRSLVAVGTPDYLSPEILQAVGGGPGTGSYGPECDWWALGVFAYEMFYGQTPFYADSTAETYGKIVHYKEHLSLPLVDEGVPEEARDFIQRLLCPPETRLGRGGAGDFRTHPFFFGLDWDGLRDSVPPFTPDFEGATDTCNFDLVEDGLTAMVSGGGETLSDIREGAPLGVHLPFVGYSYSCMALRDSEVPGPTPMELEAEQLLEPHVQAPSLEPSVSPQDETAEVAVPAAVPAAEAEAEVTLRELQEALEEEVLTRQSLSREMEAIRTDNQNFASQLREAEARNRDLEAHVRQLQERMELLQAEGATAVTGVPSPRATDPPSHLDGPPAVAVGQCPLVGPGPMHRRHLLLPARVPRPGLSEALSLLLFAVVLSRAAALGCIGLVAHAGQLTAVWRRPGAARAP

[7] = system: Fibroblast growth factor receptor 1 (Homo sapiens), P11362 [V561M]; experiment: Inhibition of human FGFR1 V561M mutant assessed as residual activity at 1 uM relative to control
Chain of Fibroblast growth factor receptor 1 (Homo sapiens), P11362 [V561M] (P11362 whole entry V561M): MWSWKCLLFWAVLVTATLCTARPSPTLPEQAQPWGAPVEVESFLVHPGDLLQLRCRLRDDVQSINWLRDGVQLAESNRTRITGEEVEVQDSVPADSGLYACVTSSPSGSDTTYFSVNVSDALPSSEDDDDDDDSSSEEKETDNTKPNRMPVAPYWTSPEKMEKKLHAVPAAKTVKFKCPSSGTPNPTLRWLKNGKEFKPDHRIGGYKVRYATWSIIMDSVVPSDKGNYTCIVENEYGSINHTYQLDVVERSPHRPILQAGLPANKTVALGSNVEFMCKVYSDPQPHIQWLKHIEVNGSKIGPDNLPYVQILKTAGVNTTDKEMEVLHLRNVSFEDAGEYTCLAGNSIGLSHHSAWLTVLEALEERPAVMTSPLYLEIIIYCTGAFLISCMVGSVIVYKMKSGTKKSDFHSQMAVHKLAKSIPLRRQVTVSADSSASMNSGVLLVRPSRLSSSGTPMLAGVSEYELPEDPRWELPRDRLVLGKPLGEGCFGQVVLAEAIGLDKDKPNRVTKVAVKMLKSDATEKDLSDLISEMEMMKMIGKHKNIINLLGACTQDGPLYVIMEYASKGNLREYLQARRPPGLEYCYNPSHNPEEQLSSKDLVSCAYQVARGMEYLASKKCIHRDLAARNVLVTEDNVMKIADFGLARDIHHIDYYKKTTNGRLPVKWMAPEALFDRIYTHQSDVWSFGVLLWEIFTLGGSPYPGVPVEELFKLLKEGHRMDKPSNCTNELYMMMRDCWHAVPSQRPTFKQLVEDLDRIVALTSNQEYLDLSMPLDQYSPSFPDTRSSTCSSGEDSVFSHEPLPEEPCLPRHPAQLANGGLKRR

[8] = target: Serine/threonine-protein kinase mTOR (Homo sapiens) (UniProt P42345); experiment: Inhibition of human mTOR assessed as residual activity at 1 uM relative to control
[9] = target: Tyrosine-protein kinase Fes/Fps (Homo sapiens) (UniProt P07332); experiment: Inhibition of human FES assessed as residual activity at 1 uM relative to control
[10] = target: SRSF protein kinase 1 (Homo sapiens) (UniProt Q96SB4); experiment: Inhibition of human SRPK1 assessed as residual activity at 1 uM relative to control
Chain of SRSF protein kinase 1 (Homo sapiens) (Q96SB4 whole entry): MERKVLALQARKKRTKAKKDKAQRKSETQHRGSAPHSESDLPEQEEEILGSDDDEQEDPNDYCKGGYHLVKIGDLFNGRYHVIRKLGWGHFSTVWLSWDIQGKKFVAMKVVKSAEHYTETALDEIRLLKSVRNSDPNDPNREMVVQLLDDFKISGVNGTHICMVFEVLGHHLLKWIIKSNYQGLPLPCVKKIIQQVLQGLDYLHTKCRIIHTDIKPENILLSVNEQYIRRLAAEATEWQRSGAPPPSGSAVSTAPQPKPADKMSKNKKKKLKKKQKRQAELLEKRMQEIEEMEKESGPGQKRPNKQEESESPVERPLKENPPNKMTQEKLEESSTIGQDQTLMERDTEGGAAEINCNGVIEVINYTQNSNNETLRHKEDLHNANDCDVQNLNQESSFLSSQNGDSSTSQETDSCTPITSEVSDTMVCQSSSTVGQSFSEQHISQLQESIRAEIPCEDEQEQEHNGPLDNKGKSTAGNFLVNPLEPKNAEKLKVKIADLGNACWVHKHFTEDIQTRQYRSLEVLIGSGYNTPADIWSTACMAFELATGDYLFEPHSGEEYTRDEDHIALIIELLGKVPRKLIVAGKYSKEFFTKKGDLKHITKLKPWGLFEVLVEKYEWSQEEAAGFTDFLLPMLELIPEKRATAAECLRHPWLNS

[11] = target: Tyrosine-protein kinase Fer (Homo sapiens) (UniProt P16591); experiment: Inhibition of human FER assessed as residual activity at 1 uM relative to control
Chain of Tyrosine-protein kinase Fer (Homo sapiens) (P16591 whole entry, looked up): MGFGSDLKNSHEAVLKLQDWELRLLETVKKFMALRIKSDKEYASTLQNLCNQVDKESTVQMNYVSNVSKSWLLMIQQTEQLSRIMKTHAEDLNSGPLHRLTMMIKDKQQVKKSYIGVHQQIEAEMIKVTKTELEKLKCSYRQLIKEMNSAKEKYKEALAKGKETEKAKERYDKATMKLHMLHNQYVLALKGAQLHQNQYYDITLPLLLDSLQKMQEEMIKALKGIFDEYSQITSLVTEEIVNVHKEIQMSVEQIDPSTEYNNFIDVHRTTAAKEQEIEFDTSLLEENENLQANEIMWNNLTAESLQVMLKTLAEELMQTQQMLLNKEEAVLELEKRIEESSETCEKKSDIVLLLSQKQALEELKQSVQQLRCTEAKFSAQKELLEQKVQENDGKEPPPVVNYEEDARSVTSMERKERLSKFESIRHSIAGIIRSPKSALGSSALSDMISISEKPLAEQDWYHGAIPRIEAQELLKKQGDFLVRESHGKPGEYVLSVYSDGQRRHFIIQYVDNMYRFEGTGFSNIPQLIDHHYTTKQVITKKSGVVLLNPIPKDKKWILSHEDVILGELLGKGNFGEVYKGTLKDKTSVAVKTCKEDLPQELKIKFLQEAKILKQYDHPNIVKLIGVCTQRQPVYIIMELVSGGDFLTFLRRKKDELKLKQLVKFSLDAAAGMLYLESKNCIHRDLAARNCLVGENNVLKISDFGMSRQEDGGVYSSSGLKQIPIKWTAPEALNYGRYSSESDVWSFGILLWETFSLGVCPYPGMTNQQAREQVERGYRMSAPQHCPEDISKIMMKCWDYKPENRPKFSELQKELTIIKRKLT

[12] = target: MAP kinase-activated protein kinase 2 (Homo sapiens) (UniProt P49137); experiment: Inhibition of human MAPKAP-K2 assessed as residual activity at 1 uM relative to control
[13] = target: CDK6/cyclin D3 (Homo sapiens) (UniProt P30281+Q00534); experiment: Inhibition of human CDK6/cyclin D3 assessed as residual activity at 1 uM relative to control; format: protein-complex assay
[14] = target: Rho-associated protein kinase 1 (Homo sapiens) (UniProt Q13464); experiment: Inhibition of human ROCK-1 assessed as residual activity at 1 uM relative to control
[15] = target: Mitogen-activated protein kinase 8 (Homo sapiens) (UniProt P45983); experiment: Inhibition of human JNK1alpha1 assessed as residual activity at 1 uM relative to control
[16] = target: Tyrosine-protein kinase Lck (Homo sapiens) (UniProt P06239); experiment: Inhibition of human LCK assessed as residual activity at 1 uM relative to control
[17] = target: CDK9/cyclin T1 (Homo sapiens) (UniProt O60563+P50750); experiment: Inhibition of human CDK9/cyclin T1 assessed as residual activity at 1 uM relative to control; format: protein-complex assay
[18] = target: PI3K p110 beta/p85 alpha (Homo sapiens) (UniProt P27986+P42338); experiment: Inhibition of human PI3K p110beta/p85alpha assessed as residual activity at 1 uM relative to control; format: protein-complex assay
Chain of PI3K p110 beta/p85 alpha (Homo sapiens) (P27986 2-724 limits assumed): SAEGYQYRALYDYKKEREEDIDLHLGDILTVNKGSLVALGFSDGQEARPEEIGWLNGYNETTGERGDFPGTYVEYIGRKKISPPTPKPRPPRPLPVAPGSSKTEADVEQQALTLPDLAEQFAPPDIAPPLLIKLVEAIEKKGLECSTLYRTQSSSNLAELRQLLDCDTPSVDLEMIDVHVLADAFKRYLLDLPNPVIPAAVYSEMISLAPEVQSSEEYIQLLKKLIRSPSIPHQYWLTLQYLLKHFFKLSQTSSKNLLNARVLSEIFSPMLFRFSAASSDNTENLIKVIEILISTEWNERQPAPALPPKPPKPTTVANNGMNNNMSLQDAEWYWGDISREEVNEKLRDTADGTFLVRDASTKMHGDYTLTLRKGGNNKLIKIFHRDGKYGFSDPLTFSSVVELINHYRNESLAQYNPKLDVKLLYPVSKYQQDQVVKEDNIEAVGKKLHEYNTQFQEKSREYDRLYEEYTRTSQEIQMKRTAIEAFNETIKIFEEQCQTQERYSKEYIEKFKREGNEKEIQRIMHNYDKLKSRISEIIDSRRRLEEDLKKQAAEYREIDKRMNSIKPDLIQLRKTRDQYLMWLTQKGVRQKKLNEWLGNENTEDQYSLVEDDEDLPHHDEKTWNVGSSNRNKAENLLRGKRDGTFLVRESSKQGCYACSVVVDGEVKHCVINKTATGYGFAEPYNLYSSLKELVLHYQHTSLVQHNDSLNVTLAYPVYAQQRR
Chain of PI3K p110 beta/p85 alpha (Homo sapiens) (P42338 whole entry partner): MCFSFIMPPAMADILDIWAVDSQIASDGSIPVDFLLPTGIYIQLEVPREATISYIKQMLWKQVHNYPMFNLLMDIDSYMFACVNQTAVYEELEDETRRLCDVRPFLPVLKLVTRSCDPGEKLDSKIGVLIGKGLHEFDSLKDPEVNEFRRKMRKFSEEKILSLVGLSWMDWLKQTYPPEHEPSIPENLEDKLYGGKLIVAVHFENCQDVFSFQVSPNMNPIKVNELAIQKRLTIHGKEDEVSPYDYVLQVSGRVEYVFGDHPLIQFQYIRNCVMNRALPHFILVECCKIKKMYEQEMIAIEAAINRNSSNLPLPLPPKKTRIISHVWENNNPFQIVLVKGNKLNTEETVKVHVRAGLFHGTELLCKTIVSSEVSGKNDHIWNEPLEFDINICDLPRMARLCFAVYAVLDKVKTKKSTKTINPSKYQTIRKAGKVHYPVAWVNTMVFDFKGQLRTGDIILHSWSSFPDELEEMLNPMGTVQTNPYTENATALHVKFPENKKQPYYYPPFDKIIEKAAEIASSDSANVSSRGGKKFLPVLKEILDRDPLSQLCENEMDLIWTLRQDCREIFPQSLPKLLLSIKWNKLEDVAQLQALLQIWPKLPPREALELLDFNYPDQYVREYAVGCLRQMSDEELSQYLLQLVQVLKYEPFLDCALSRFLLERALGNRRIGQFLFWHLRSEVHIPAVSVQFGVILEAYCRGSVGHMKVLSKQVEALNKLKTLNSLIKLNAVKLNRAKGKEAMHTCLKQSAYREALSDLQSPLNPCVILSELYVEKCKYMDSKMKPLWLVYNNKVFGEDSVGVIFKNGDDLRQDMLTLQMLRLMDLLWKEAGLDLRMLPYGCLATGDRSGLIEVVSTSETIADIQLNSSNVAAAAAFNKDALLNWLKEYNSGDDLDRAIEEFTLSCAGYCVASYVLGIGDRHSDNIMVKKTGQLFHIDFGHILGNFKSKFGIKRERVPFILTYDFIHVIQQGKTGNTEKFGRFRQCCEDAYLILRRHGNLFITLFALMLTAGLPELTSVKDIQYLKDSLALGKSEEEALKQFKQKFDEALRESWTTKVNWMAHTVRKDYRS

Row | Activity [1] | Activity [2] | Activity [3] | Activity [4] | Activity [5] | Activity [6] | Activity [7] | Activity [8] | Activity [9] | Activity [10] | Activity [11] | Activity [12] | Activity [13] | Activity [14] | Activity [15] | Activity [16] | Activity [17] | Activity [18] | SMILES
1 | 83% | 79% | 85% | 105% | 11% | 100% | 90% | 110% | 92% | 96% | 104% | 94% | 102% | 98% | 98% | 31% | 95% | 92% | COc1ccc(-c2nc3cc(-c4csc(C(=O)NCCC(C)C)c4)cnc3[nH]2)cc1
2 | 106% | 80% | 85% | 98% | 30% | 104% | 104% | 102% | 85% | 94% | 100% | 98% | 105% | 104% | 98% | 64% | 103% | 89% | COc1ccc(-c2nc3cc(-c4csc(C(=O)NCC(C)(C)C)c4)cnc3[nH]2)cc1
3 | 102% | 62% | 96% | 108% | 20% | 97% | 85% | 104% | 92% | 91% | 111% | 101% | 103% | 113% | 117% | 44% | 100% | 89% | COc1ccc(-c2nc3cc(-c4csc(C(=O)NCC(C)C)c4)cnc3[nH]2)cc1
